Test results as given in patent publication US8142759B2, “Glyco-molecular imaging method for grade classification of liver fibrosis and its glyco-molecular imaging agent thereof” (Institute of Nuclear Energy Research, priority 2007, dated 2012).

Experiment: Storage stability at room temperature
Assay type: physicochemical

O=C(O)CN(CCN1CC(=O)OC(=O)C1)CCN1CC(=O)OC(=O)C1 [DTPA anhydride]
storage stability at room temperature (water dissolution): much unstable

O=C(CN(CCSC(c1ccccc1)(c1ccccc1)c1ccccc1)CC(=O)ON1C(=O)CCC1=O)NCCSC(c1ccccc1)(c1ccccc1)c1ccccc1 [SOCTA, succinimidyl-3,6-diaza-5-oxo-3-[2-((triphenyl-methyl)thio)ethyl]-8-[(triphenylmethyl)-thio]octanoate]
storage time at room temperature (air/water stability): one
